Structures can show the parent of a compound that is named as a salt. Square brackets hold non-standard residues; d marks the D form. Peptide text beside a SMILES is read from it. * marks the point of attachment. Propyl(2R-PamO,3-PamO) = CCCCCCCCCCCCCCCC(=O)OC[C@H](C*)OC(=O)CCCCCCCCCCCCCCC
What was measured:
[1] = test system: bone marrow cells of BALB/c mice; assay: Enhancing proliferation of bone marrow cells of mice (MTT reduction method); type: cell-based; settings: concentration giving 1.3 or more times the proliferation of the group without test compound; 37°C, 3 days
Method: Actions of compound (I) produced in the foregoing Examples on enhancing proliferation of bone marrow cells of mice are shown in Table 2.
To a RPMI 1640 culture medium [Bio-Wittaker Inc. (hereinafter abbreviated as BW), U.S.A.] containing 2 x 10⁶/ml of bone marrow cells of BALB/c mice, 2 mM of L-glutamine, 20 µg/ml of gentamicin (Flow Laboratories, Inc., Scotland), 10% fetal calf serum (BW, U.S.A.) was added a test compound in an adequate concentration, which was incubated at 37°C for 3 days in 5% carbon dioxide in air followed by determination of proliferation of the bone marrow cells by the MTT reduction method [Tada et al., Journal of Immunological Methods, Vol. 93, p.157, 1986].

leukocytes = assay: Enhancing the number of leukocytes in cyclophosphamide-treated mice; type: in vivo, CDF1/Crj mice; settings: percentage relative to mice without cyclophosphamide (100%)
Method: Six weeks old female CDF1/Crj mice (5 animals per group) were subjected to the experiment. Each animal was orally administered with cyclophosphamide dissolved in physiological saline solution at a dose of 150 mg/kg. From the next day, each animal was administered subcutaneously with the compound suspended in 5% glucose at the following dosage for five days once a day. On the next day after completion of the administration, about 100 µl of peripheral blood was collected from orbital vein using an EDTA-treated glass capillary. Then, the number of leukocytes was counted using an automatic cell analyzer (Sysmex K-2000, Toa Medical Electronics, Japan).

[2] = test system: Non adherent bone marrow cells of BALB/c mice; assay: Enhancing development of AchE positive cells (fluorescence method); type: cell-based; settings: 10 ng/ml; 37°C, 5 days; AchE activity in the group without compound is shown as 1
Description: Action of compound (I) on enhancing development of acetylcholine esterase (hereinafter abbreviated as AchE) positive cells are shown in Table 4.
The AchE activity was studied according to a fluorescence method (Ishibashi et al., Proceedings of the National Academy of Science U.S.A., Vol. 86, pp. 5953 to 5957, 1989).
Non adherent bone marrow cells of BALB/c mice (1 x 10⁶ cells/ml) were suspended in Iscove's modification of Dulbecco's medium (Gibco BRL Inc., U.S.A.) containing 1% Neutridoma-SP (Boheringer Mannhaim, Germany). Twenty-five µl of a test compound solution in an adequate concentration was inoculated in a 96-well plate. To each of these solutions in the well was added 100 µl of the non adherent bone marrow cells suspension. After incubation at 37°C for 5 days, 25 µl of 6% glutaraldehyde aqueous solution was added to the well. After standing at 4°C for 30 minutes the mixture was centrifuged (850 x g) at 5°C for 5 minutes and the supernatant was removed. […] To this was added 10 µl of 0.4 mM 7-diethylamino-3-(4'-maleimidylphenyl)-4-methylcoumarin aqueous solution and 100 µl of buffer (pH 5.0) containing 0.2% POPE, 1 mM EDTA and 50 mM sodium acetate and fluorescence emission was determined on a fluorometer (excitation wave length: 365 nm, fluorescence wave length: 450 nm).

mice = assay: Toxicity test, intravenous administration; type: in vivo; settings: intravenous administration at 125 mg/kg
Method: Intravenous administration of trisodium salt of compound 1 at 125 mg/kg caused no death in mice.

CCCCCCCCCCCCCCCC(=O)OC[C@H](CSC[C@H](NC(=O)CN)C(=O)N[C@@H](CCC(=O)O)C(=O)NCC(=O)N[C@H](CCC(=O)O)C(=O)O)OC(=O)CCCCCCCCCCCCCCC [Compound 1, (2R,6R)-2-(H-Gly-amino)-6,7-bis(PamO)-4-THT-Glu-Gly-D-Glu-OH] (H-GC(Propyl(2R-PamO,3-PamO))EG[dE]-OH)
Minimal Effective Concentration (MEC, ng/ml) [1]: 6.25 ng/mL | Number of leukocytes (leukocytes; 0.50 mg/kg/day subcutaneously for 5 days after oral cyclophosphamide 150 mg/kg): 137% | Degree of AchE Positive Cell [2]: 1.92

CCCCCCCCCCCCCCCC(=O)OC[C@H](CSC[C@H](NC(=O)CNC(=O)[C@@H](N)CCC(=O)O)C(=O)N[C@@H](CCC(=O)O)C(=O)NCC(=O)N[C@H](CCC(=O)O)C(=O)O)OC(=O)CCCCCCCCCCCCCCC [Compound 4, (2R,6R)-2-(H-Glu-Gly-amino)-6,7-bis(PamO)-4-THT-Glu-Gly-D-Glu-OH] (H-EGC(Propyl(2R-PamO,3-PamO))EG[dE]-OH)
Number of leukocytes (leukocytes; 0.13 mg/kg/day subcutaneously for 5 days after oral cyclophosphamide 150 mg/kg): 108%

CCCCCCCCCCCCCCCC(=O)OC[C@H](CSC[C@H](NC(=O)[C@@H](N)Cc1ccc(O)cc1)C(=O)N[C@@H](CCC(=O)O)C(=O)NCC(=O)N[C@H](CCC(=O)O)C(=O)O)OC(=O)CCCCCCCCCCCCCCC [Compound 5, (2R,6R)-2-(H-Tyr-amino)-6,7-bis(PamO)-4-THT-Glu-Gly-D-Glu-OH] (H-YC(Propyl(2R-PamO,3-PamO))EG[dE]-OH)
Minimal Effective Concentration (MEC, ng/ml) [1]: 6.25 ng/mL

CCCCCCCCCCCCCCCC(=O)OC[C@H](CSC[C@H](NC(=O)CN)C(=O)N[C@@H](CCC(=O)O)C(=O)NCC(=O)N[C@H](CCC(=O)O)C(=O)O)OC(=O)CCCCCCCCCCCCCCC [trisodium salt of compound 1] (H-GC(Propyl(2R-PamO,3-PamO))EG[dE]-OH)
death (mice): no death
